Several values for one entry are separate records, joined by “and”; a condition that tells them apart may be missing. Identical values can stand only once. Inconclusive results and toxic doses are left out.

The assay relates to L1210 leukemia ip in BDF1 mice, survival T/C. Nature of the assay: NCI In Vivo Anticancer Drug Screen. Data for tumor model L1210 Leukemia (intraperitoneal) in B6D2F1 (BDF1) mice. The conditions noted are these: higher = longer survival. In a few lines: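 Mice bearing the transplanted tumor received compound or vehicle. Survival of the treated group was divided by that of the vehicle-treated control group to give the ratio.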

Where [1] appears, read: endpoint: mean survival time, dose: 200.0 mg/kg/injection, schedule: Q01DX001 (ip), vehicle: saline.
Where [2] appears, read: endpoint: mean survival time, dose: 100.0 mg/kg/injection, schedule: Q01DX009 (ip), vehicle: Klucel (hydroxypropylcellulose) (HPC).
Where [3] appears, read: endpoint: mean survival time, dose: 200.0 mg/kg/injection, schedule: Q01DX009 (ip), vehicle: Klucel (hydroxypropylcellulose) (HPC).
Setting [4] is: endpoint: mean survival time, dose: 400.0 mg/kg/injection, schedule: Q01DX009 (ip), vehicle: Klucel (hydroxypropylcellulose) (HPC).
Setting [5] is: endpoint: mean survival time, dose: 100.0 mg/kg/injection, schedule: Q04DX003 (ip), vehicle: Klucel (hydroxypropylcellulose) (HPC).
Where [6] appears, read: endpoint: mean survival time, dose: 200.0 mg/kg/injection, schedule: Q04DX003 (ip), vehicle: Klucel (hydroxypropylcellulose) (HPC).
Where [7] appears, read: endpoint: mean survival time, dose: 400.0 mg/kg/injection, schedule: Q04DX003 (ip), vehicle: Klucel (hydroxypropylcellulose) (HPC).
Setting [8] is: endpoint: mean survival time, dose: 100.0 mg/kg/injection, schedule: Q04DX003 (ip), vehicle: saline with Tween-80.
The mark [9] stands for this setting: endpoint: mean survival time, dose: 200.0 mg/kg/injection, schedule: Q04DX003 (ip), vehicle: saline with Tween-80.
[10] abbreviates: endpoint: mean survival time, dose: 400.0 mg/kg/injection, schedule: Q04DX003 (ip), vehicle: saline with Tween-80.
The mark [11] stands for this setting: endpoint: mean survival time, dose: 100.0 mg/kg/injection, schedule: Q01DX009 (ip), vehicle: saline with Tween-80.
Where [12] appears, read: endpoint: mean survival time, dose: 200.0 mg/kg/injection, schedule: Q01DX009 (ip), vehicle: saline with Tween-80.
The mark [13] stands for this setting: endpoint: mean survival time, dose: 50.0 mg/kg/injection, schedule: Q01DX009 (ip), vehicle: Klucel (hydroxypropylcellulose) (HPC).

In the case of `O=P1(NCCCl)OCCCN1CCCl` (stereo not given), the T/C by setting is: (endpoint: mean survival time, dose: 12.5 mg/kg/injection, schedule: Q01DX001 (ip), vehicle: saline) 101 % of control; (endpoint: mean survival time, dose: 25.0 mg/kg/injection, schedule: Q01DX001 (ip), vehicle: saline) 116 % of control and 117 % of control; (endpoint: mean survival time, dose: 25.0 mg/kg/injection, schedule: Q01DX009 (ip), vehicle: saline) 155 % of control; (endpoint: mean survival time, dose: 25.0 mg/kg/injection, schedule: Q07DX003 (ip), vehicle: saline) 110 % of control; (endpoint: mean survival time, dose: 50.0 mg/kg/injection, schedule: Q01DX001 (ip), vehicle: saline) 124 % of control; (endpoint: mean survival time, dose: 50.0 mg/kg/injection, schedule: Q01DX009 (ip), vehicle: saline) 160 % of control. The T/C runs as follows: (endpoint: mean survival time, dose: 50.0 mg/kg/injection, schedule: Q01DX009 (ip), vehicle: water) 173 % of control; (endpoint: mean survival time, dose: 75.0 mg/kg/injection, schedule: Q07DX003 (ip), vehicle: saline) 166 % of control; (endpoint: mean survival time, dose: 100.0 mg/kg/injection, schedule: Q01DX009 (ip), vehicle: saline) 260 % of control; (endpoint: mean survival time, dose: 100.0 mg/kg/injection, schedule: Q01DX009 (ip), vehicle: water) 185 % of control; (endpoint: mean survival time, dose: 100.0 mg/kg/injection, schedule: Q07DX003 (ip), vehicle: saline) 216 % of control; (endpoint: mean survival time, dose: 125.0 mg/kg/injection, schedule: Q07DX003 (ip), vehicle: saline) 206 % of control. Moreover, the T/C (endpoint: mean survival time, dose: 150.0 mg/kg/injection, schedule: Q01DX001 (ip), vehicle: saline) was 249 % of control; the T/C under setting [1] is 191 % of control and 221 % of control and 298 % of control; the T/C (endpoint: mean survival time, dose: 200.0 mg/kg/injection, schedule: Q01DX009 (ip), vehicle: saline) was 167 % of control; the T/C (endpoint: mean survival time, dose: 400.0 mg/kg/injection, schedule: Q01DX001 (ip), vehicle: saline) was 198 % of control; the T/C (endpoint: mean survival time, dose: 800.0 mg/kg/injection, schedule: Q01DX001 (ip), vehicle: saline) is 206 % of control; the T/C (endpoint: median survival time, dose: 65.0 mg/kg/injection, schedule: Q01DX014 (ip), vehicle: water) was 215 % of control and 216 % of control. The T/C is, setting by setting: (endpoint: median survival time, dose: 108.0 mg/kg/injection, schedule: Q01DX001 (ip), vehicle: water) 118 % of control and 121 % of control; (endpoint: median survival time, dose: 180.0 mg/kg/injection, schedule: Q01DX001 (ip), vehicle: saline) 172 % of control and 175 % of control; (endpoint: median survival time, dose: 180.0 mg/kg/injection, schedule: Q01DX009 (ip), vehicle: water) 291 % of control; (endpoint: median survival time, dose: 180.0 mg/kg/injection, schedule: Q01DX014 (ip), vehicle: water) 105 % of control; (endpoint: median survival time, dose: 180.0 mg/kg/injection, schedule: Q07DX003 (ip), vehicle: water) 289 % of control; (endpoint: median survival time, dose: 300.0 mg/kg/injection, schedule: Q01DX001 (ip), vehicle: saline) 261 % of control and 266 % of control. Further, the T/C was 187 % of control (endpoint: median survival time, dose: 300.0 mg/kg/injection, schedule: Q01DX009 (ip), vehicle: water); 76 % of control (endpoint: median survival time, dose: 300.0 mg/kg/injection, schedule: Q01DX014 (ip), vehicle: water); 168 % of control (endpoint: median survival time, dose: 300.0 mg/kg/injection, schedule: Q07DX003 (ip), vehicle: water); 272 % of control and 297 % of control (endpoint: median survival time, dose: 400.0 mg/kg/injection, schedule: Q01DX001 (ip), vehicle: water); 44 % of control (endpoint: median survival time, dose: 500.0 mg/kg/injection, schedule: Q01DX001 (ip), vehicle: saline); 81 % of control (endpoint: median survival time, dose: 500.0 mg/kg/injection, schedule: Q01DX009 (ip), vehicle: water). In addition, the T/C runs as follows: (endpoint: median survival time, dose: 600.0 mg/kg/injection, schedule: Q01DX001 (ip), vehicle: water) 227 % of control and 255 % of control; (endpoint: median survival time, dose: 700.0 mg/kg/injection, schedule: Q01DX001 (ip), vehicle: water) 46 % of control; (endpoint: median survival time, dose: 800.0 mg/kg/injection, schedule: Q01DX001 (ip), vehicle: water) 39 % of control; (endpoint: median survival time, dose: 833.0 mg/kg/injection, schedule: Q01DX001 (ip), vehicle: saline) 23 % of control; (endpoint: median survival time, dose: 833.0 mg/kg/injection, schedule: Q01DX009 (ip), vehicle: water) 24 % of control; (endpoint: median survival time, dose: 900.0 mg/kg/injection, schedule: Q01DX001 (ip), vehicle: water) 25 % of control.

As for `CC(=O)c1ccc(Cc2ccc(C(C)=O)cc2)cc1`, the T/C was 98 % of control under setting [2], 98 % of control under setting [3] and 106 % of control under setting [4].

As for `COc1cc(N(CCCl)CCCl)ccc1C=Nc1ccc2c(c1)ncn2C`, the T/C (endpoint: mean survival time, dose: 75.0 mg/kg/injection, schedule: Q04DX002 (ip), vehicle: Klucel (hydroxypropylcellulose) (HPC)) is 112 % of control; the T/C (endpoint: mean survival time, dose: 150.0 mg/kg/injection, schedule: Q04DX002 (ip), vehicle: Klucel (hydroxypropylcellulose) (HPC)) was 101 % of control; the T/C (endpoint: mean survival time, dose: 300.0 mg/kg/injection, schedule: Q04DX002 (ip), vehicle: Klucel (hydroxypropylcellulose) (HPC)) is 108 % of control.

As to `Cc1ccc(NC(=O)Nc2ccccc2Cl)cc1Cl`, the T/C was 100 % of control under setting [2]; 112 % of control under setting [5]; 98 % of control under setting [3]; 96 % of control under setting [6]; 100 % of control under setting [4]; 94 % of control under setting [7].

For `CN1CCN(C2=Cc3ccccc3C(O)C(Cc3ccccc3)=N2)CC1` (stereo not given), the T/C by setting is: under setting [8], 100 % of control; under setting [9], 96 % of control; under setting [10], 96 % of control.

Consider `COc1ccc(C2(C(=O)O)CCCC2)cc1`, for which the T/C under setting [11] is 102 % of control; the T/C under setting [8] is 103 % of control; the T/C under setting [12] is 96 % of control; the T/C under setting [9] is 108 % of control; the T/C under setting [10] was 97 % of control.

In the case of `ClCC1CC2C=CC1C2` (stereo not given), the T/C runs as follows: (endpoint: mean survival time, dose: 12.5 mg/kg/injection, schedule: Q01DX009 (ip), vehicle: Klucel (hydroxypropylcellulose) (HPC)) 100 % of control; (endpoint: mean survival time, dose: 25.0 mg/kg/injection, schedule: Q01DX009 (ip), vehicle: Klucel (hydroxypropylcellulose) (HPC)) 100 % of control; (endpoint: mean survival time, dose: 25.0 mg/kg/injection, schedule: Q04DX002 (ip), vehicle: saline with Tween-80) 102 % of control; under setting [13], 93 % of control and 98 % of control; (endpoint: mean survival time, dose: 50.0 mg/kg/injection, schedule: Q04DX002 (ip), vehicle: saline with Tween-80) 88 % of control.

`N=C(N)SCCCCCSC(=N)N`: the T/C is 124 % of control (endpoint: mean survival time, dose: 100.0 mg/kg/injection, schedule: Q01DX001 (ip), vehicle: saline); 110 % of control (endpoint: mean survival time, dose: 100.0 mg/kg/injection, schedule: Q04DX002 (ip), vehicle: saline); 109 % of control under setting [1]; 91 % of control (endpoint: mean survival time, dose: 200.0 mg/kg/injection, schedule: Q04DX002 (ip), vehicle: saline).

For `O=c1oc(-c2ccccc2)n[n+]([O-])c1-c1ccccc1`, the T/C is 98 % of control under setting [13] and 98 % of control under setting [2].

Turning to `O=C(NCc1ccccc1)c1ccccc1`, the T/C was 97 % of control under setting [5], 95 % of control under setting [6] and 100 % of control under setting [7].

In the case of `COC(=O)C1ON(C(=O)c2ccccc2)C(C)C2OC12` (stereo not given), the T/C was 103 % of control under setting [5], 100 % of control under setting [6] and 96 % of control under setting [7].

`O=[N+]([O-])c1cccnc1Oc1cc(Cl)c(Cl)cc1Cl`: the T/C was 107 % of control under setting [11]; 102 % of control under setting [8]; 107 % of control under setting [12]; 93 % of control under setting [9]; 100 % of control (endpoint: mean survival time, dose: 400.0 mg/kg/injection, schedule: Q01DX009 (ip), vehicle: saline with Tween-80); 91 % of control under setting [10].

Consider `CC(C)CCCC(C)C1CCC2C3CC(=O)NC45CC4CCC5(C)C3CCC12C` (stereo not given), for which the T/C by setting is: under setting [8], 116 % of control; under setting [9], 97 % of control; under setting [10], 92 % of control.

Turning to `Ic1cccc2cc3cccc[n+]3cc12`, the T/C is 102 % of control (endpoint: mean survival time, dose: 9.9 mg/kg/injection, schedule: Q01DX Z (ip), vehicle: carboxymethylcellulose (CMC)); 103 % of control (endpoint: mean survival time, dose: 14.6 mg/kg/injection, schedule: Q01DX Z (ip), vehicle: carboxymethylcellulose (CMC)); 91 % of control (endpoint: mean survival time, dose: 22.0 mg/kg/injection, schedule: Q01DX Z (ip), vehicle: carboxymethylcellulose (CMC)).

These data come from PubChem BioAssay AID248 (DTP/NCI, 2004).
